We go through four compounds from ChEMBL document CHEMBL5108065 (J Med Chem, 2022).

≈ marks a conversion by molar mass, not a printed value.

Series [1] is described as follows: Metabolic stability in human hepatocytes assessed as intrinsic clearance measured per 10^6 cells. It counts as functional, Hepatocyte.
Series [2] can be described thus: Solubility of the compound in FeSSIF at pH 5.8. To be noted: simulated gi fluid. It counts as physicochemical.
The nature of series [3]: Lipophilicity, log D of the compound. Type of series: physicochemical. To be noted: octanol/water.
The target of series [4] is Cathepsin D (Homo sapiens, UniProt P07339). Description: Inhibition of human cathepsin D.
The target of series [5] is T1, Renin (Homo sapiens, UniProt P00797).
T1 sequence (P00797 whole entry): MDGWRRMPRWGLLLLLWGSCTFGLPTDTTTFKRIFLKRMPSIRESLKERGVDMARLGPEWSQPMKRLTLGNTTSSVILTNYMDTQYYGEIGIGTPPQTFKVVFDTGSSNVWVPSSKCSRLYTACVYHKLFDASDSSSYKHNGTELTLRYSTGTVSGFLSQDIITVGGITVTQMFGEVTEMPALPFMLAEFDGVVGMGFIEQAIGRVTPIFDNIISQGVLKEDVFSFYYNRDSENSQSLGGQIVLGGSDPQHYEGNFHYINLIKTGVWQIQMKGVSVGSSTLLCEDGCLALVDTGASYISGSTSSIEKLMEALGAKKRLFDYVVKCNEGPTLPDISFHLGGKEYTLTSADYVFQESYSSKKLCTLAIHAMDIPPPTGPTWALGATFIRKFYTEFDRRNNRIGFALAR
The series is described as follows: Inhibition of human renin.

The nature of series [6]: Inhibition of BACE (unknown origin). More on the design: species or system Homo sapiens.
For series [7], the target named is Plasmepsin X (Plasmodium falciparum (isolate 3D7), UniProt Q8IAS0). Description: biochemical.
Description: Inhibition of Plasmodium falciparum recombinant C-terminal TEV cleavable 8his-tagged PMX by FRET assay
The species named for series [8] is Homo sapiens. Description: Inhibition of BACE (unknown origin) at 10 uM relative to control.
A short description of series [9]: Inhibition of Plasmodium falciparum PMV by FRET assay.
The nature of series [10]: Inhibition of Plasmodium vivax PMX by FRET assay.
For series [11], the system named is Plasmodium falciparum. The series is described as follows: Antiplasmodial activity against sensitive Plasmodium falciparum NF54 infected in human red blood cells assessed as reduction in [3H]-hypoxanthine incorporation pretreated for 48 hrs followed by [3H]-hypoxanthine addition measured after 24 hrs by scintillation counting method. It counts as functional, organism-based.

Series [12] relates to Plasmodium falciparum. Description: Antimalarial activity against Plasmodium falciparum K1 harbouring Pf-crt, Pf-mdrl,Pf-dhfr, Pf-dhps mutated loci assessed as inhibition of parasite growth pretreated for 48 hrs followed by [3H]-hypoxanthine addition measured after 24 hrs by scintillation counting method. It counts as functional, organism-based.
Series [13] deals with Plasmodium falciparum. Description: Antimalarial activity against Plasmodium falciparum TM90C2b harbouring Pf-crt, Pf-mdrl,Pfd-hfr, Pf-cytbQ0 mutated loci assessed as inhibition of parasite growth pretreated for 48 hrs followed by [3H]-hypoxanthine addition measured after 24 hrs by scintillation counting method. It counts as functional, organism-based.
The subject of series [14] is Plasmodium falciparum. Description: Antimalarial activity against Plasmodium falciparum Dd2048 harbouring pfpi4k mutated loci assessed as inhibition of parasite growth pretreated for 48 hrs followed by [3H]-hypoxanthine addition measured after 24 hrs by scintillation counting method. It counts as functional, organism-based.
The subject of series [15] is Plasmodium falciparum. Description: Antimalarial activity against DDD107498 resistant Plasmodium falciparum Dd2 harbouring pfeef2 mutated loci assessed as inhibition of parasite growth pretreated for 48 hrs followed by [3H]-hypoxanthine addition measured after 24 hrs by scintillation counting method. It counts as functional, organism-based.
Series [16] deals with Plasmodium falciparum. The series is described as follows: Antimalarial activity against DSM265 resistant Plasmodium falciparum Dd2 harbouring pf-dhodh mutated loci assessed as inhibition of parasite growth pretreated for 48 hrs followed by [3H]-hypoxanthine addition measured after 24 hrs by scintillation counting method. Type of series: functional, organism-based.
Series [17] concerns Plasmodium falciparum. Description: Antimalarial activity against ELQ300 resistant Plasmodium falciparum Dd2 harbouring pfcytB mutated loci assessed as inhibition of parasite growth pretreated for 48 hrs followed by [3H]-hypoxanthine addition measured after 24 hrs by scintillation counting method. Type of series: functional, organism-based.
The test system of series [18] is Plasmodium falciparum. The series is described as follows: Antimalarial activity against KAF156 resistant Plasmodium falciparum Dd2 harbouring pf-carl mutated loci assessed as inhibition of parasite growth pretreated for 48 hrs followed by [3H]-hypoxanthine addition measured after 24 hrs by scintillation counting method. Type of series: functional, organism-based.

Plasmepsin X, sequence (Q8IAS0 whole entry): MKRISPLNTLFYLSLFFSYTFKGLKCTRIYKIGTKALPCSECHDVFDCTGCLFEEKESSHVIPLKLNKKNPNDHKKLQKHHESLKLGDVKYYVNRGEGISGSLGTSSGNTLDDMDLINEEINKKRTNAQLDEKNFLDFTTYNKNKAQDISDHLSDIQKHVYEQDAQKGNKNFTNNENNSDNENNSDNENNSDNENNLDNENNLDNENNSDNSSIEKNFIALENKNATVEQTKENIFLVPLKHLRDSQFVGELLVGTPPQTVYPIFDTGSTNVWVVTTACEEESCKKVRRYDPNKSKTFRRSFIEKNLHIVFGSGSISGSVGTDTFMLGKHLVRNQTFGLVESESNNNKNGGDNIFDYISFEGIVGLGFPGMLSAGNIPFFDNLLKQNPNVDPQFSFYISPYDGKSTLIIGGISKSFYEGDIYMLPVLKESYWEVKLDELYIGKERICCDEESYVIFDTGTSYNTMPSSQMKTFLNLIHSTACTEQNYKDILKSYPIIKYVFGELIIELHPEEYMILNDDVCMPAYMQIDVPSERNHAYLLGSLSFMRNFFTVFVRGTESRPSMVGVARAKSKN
Cathepsin D, sequence (P07339 65-162 limits assumed): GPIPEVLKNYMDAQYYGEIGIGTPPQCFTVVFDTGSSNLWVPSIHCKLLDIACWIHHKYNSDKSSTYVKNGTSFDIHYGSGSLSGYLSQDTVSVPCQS
Cathepsin D, sequence (P07339 169-412 limits assumed): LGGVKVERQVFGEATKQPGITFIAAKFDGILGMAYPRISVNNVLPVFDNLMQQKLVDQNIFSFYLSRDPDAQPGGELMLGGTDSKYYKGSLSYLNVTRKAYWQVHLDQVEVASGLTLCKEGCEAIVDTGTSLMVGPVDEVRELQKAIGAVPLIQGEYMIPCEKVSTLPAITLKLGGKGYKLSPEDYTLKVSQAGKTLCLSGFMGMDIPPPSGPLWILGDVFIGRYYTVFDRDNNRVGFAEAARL

The solubility is the dissolved amount per volume that the medium holds. High values mean much dissolved substance, low ones little dissolved substance. For orientation: logD means lipophilicity at a set pH, counting ionised and neutral species. For orientation: IC50 means the concentration that gives 50% inhibition. `[H]/N=C1\N[C@](C)(c2cccc(Nc3cnc(C4CC4)nc3)c2Cl)CC(=O)N1[C@H]1CCO[C@@H](C)C1`: the intrinsic clearance in [1] came to 4 µL/min. Also, the solubility in series [2] is 1372 µM (≈ 643 µg/mL). Also, in series [3], the pH-dependent lipophilicity (logD) is given as 2. Moreover, the IC50 in series [4] is 215 nM; in series [5], 2360 nM; in [6], greater than 10000 nM; in series [7], 9 nM.
The term inhibition denotes the percentage by which the read-out fell short of the control. A higher inhibition goes with a strong effect. Take `C[C@@]1(c2cccc(Nc3ccc(C4CC4)nc3)c2Cl)CC(=O)N(C2CCOCC2)C(=N)N1`: the intrinsic clearance in series [1] turned out to be 3 µL/min. Also, the solubility in [2] is 1161 µM (≈ 527 µg/mL). Besides, the logD in series [3] worked out at 2.1. In addition, the half-maximal inhibitory concentration (IC50) in series [4] was determined as 1190 nM; in series [5] it was 1070 nM; in [7], 37 nM. In series [8], this compound gave an inhibition of 52%.
With `C[C@@]1(c2cccc(NC(=O)c3ccccc3)c2Cl)CC(=O)N(C2CCOCC2)C(=N)N1`, the 50% inhibitory concentration (IC50) in [9] is greater than 5000 nM; in [4], greater than 10000 nM; in series [7], 32 nM. In series [1], the intrinsic clearance came out at 4 µL/min. This compound came in with a pH-dependent lipophilicity (logD) in [3] of 1.2.
As for `C[C@@]1(c2cccc(Nc3ccccc3)c2Cl)CC(=O)N(C2CCOCC2)C(=N)N1`, the IC50 is 31 nM in series [10]; 2700 nM in [9]; 58 nM in [4]; 107 nM in series [11]; 112 nM in series [12]; 62 nM in series [13]. Also, the IC50 was 87 nM in series [14]; 82 nM in series [15]; 78 nM in [16]; 96 nM in [17]; 83 nM in series [18]; 15 nM in series [7]. Also, the intrinsic clearance in [1] was found to be 28 µL/min. In addition, the solubility in series [2] is 1057 µM (≈ 436 µg/mL). Moreover, in series [3], the logD stood at 2.2.
